≈ marks a conversion by molar mass, not a printed value. Like-named read-outs stand apart in the source and are kept apart here.
Key:
[1] = design: method as in doi:10.1007/BF02673395; settings: ref [48]; cited from earlier work
[2] = tested on: C. glabrata ATCC 90030 and 24 clinical isolates; design: method as in PMID 26092104; settings: ref [8], cited from earlier work
C. glabrata ATCC 90030 [3] = test: MIC90/MFC, EUCAST broth microdilution; format: cell-based, Candida glabrata; settings: Nakaseomyces glabratus, ATCC90030, ATCC 90030; for MFC: read-out: MFC; for MIC90: read-out: MIC90
C. glabrata 2853 [4] = test: Interaction of AABs (3 µM) with antifungal agents, modified checkerboard; format: cell-based, Candida glabrata; settings: for Multiplicity factor (MF) with C9: C9 3 µM; for MIC90 of antimycotic combined with C9: C9 at constant 3 µM; for MIC90 of antimycotic combined with C9 / MIC90 of antimycotic combined with C11 / MIC90 of antimycotic combined with C13 / MIC90 of antimycotic combined with C15: dilutions in µg/mL; for Multiplicity factor (MF) with C11: C11 3 µM; for MIC90 of antimycotic combined with C11: C11 at constant 3 µM; for Multiplicity factor (MF) with C13: C13 3 µM; for MIC90 of antimycotic combined with C13: C13 at constant 3 µM; for Multiplicity factor (MF) with C15: C15 3 µM; for MIC90 of antimycotic combined with C15: C15 at constant 3 µM
C. glabrata 2586 [5] = test: FICI checkerboard, β-aescin with antifungal drugs; format: cell-based, Candida glabrata; settings: combination with β-aescin
[6] = tested on: C. glabrata strains (ATCC 90030, 2586, 2853); test: Interaction of AABs with antifungal agents, statements for all tested strains together; format: cell-based, Candida glabrata; settings: all of the tested C. glabrata strains; AABs 3 µM
[7] = tested on: C. glabrata 2853 clinical strain; test: MIC90/MFC, EUCAST broth microdilution; format: cell-based, Candida glabrata; settings: Nakaseomyces glabratus; for MFC: read-out: MFC; for MIC90: read-out: MIC90
C. glabrata 2853 [8] = test: FICI checkerboard, β-aescin with antifungal drugs; format: cell-based, Candida glabrata; settings: for FICI: combination with β-aescin
C. glabrata ATCC 90030 [9] = test: FICI checkerboard, β-aescin with antifungal drugs; format: cell-based, Candida glabrata; settings: combination with β-aescin
C. glabrata 2586 [10] = test: Interaction of AABs (3 µM) with antifungal agents, modified checkerboard; format: cell-based, Candida glabrata; settings: for Multiplicity factor (MF) with C9: C9 3 µM; for MIC90 of antimycotic combined with C9: C9 at constant 3 µM; for MIC90 of antimycotic combined with C9 / MIC90 of antimycotic combined with C11 / MIC90 of antimycotic combined with C13 / MIC90 of antimycotic combined with C15: dilutions in µg/mL; for Multiplicity factor (MF) with C11: C11 3 µM; for MIC90 of antimycotic combined with C11: C11 at constant 3 µM; for MIC90 of antimycotic combined with C13: C13 at constant 3 µM; for Multiplicity factor (MF) with C15: C15 3 µM; for MIC90 of antimycotic combined with C15: C15 at constant 3 µM
[11] = tested on: biofilms of C. glabrata DSM 1226 and two clinical isolates; design: method as in PMID 37508306; settings: combination with β-AE; biofilms of three strains; ref [12]; cited from earlier work
[12] = tested on: C. glabrata 2586 clinical strain; test: MIC90/MFC, EUCAST broth microdilution; format: cell-based, Candida glabrata; settings: Nakaseomyces glabratus; for MFC: read-out: MFC; for MIC90: read-out: MIC90
C. glabrata ATCC 90030 [13] = test: Interaction of AABs (3 µM) with antifungal agents, modified checkerboard; format: cell-based, Candida glabrata; settings: for Multiplicity factor (MF) with C9: C9 3 µM, |MF| = MIC90 alone/MIC90 with AAB; for MIC90 of antimycotic combined with C9: C9 at constant 3 µM; for MIC90 of antimycotic combined with C9 / MIC90 of antimycotic combined with C11 / MIC90 of antimycotic combined with C13 / MIC90 of antimycotic combined with C15: dilutions in µg/mL; for Multiplicity factor (MF) with C11: C11 3 µM; for MIC90 of antimycotic combined with C11: C11 at constant 3 µM; for Multiplicity factor (MF) with C13: C13 3 µM; for MIC90 of antimycotic combined with C13: C13 at constant 3 µM; for Multiplicity factor (MF) with C15: C15 3 µM; for MIC90 of antimycotic combined with C15: C15 at constant 3 µM
C. albicans = tested on: C. albicans; design: method as in doi:10.1016/j.carbpol.2003.10.001; settings: C. albicans among organisms tested; ref [35]; cited from earlier work

For N-hexadecylamidepropylbetaine, the Krafft point [1] is given as 16 °C.
In the case of `C[C@@H]1[C@H](O)[C@@H](C)/C=C/C=C/CC/C=C/C=C/C=C/C=C/C(O[C@H]2O[C@H](C)[C@@H](O)[C@H](N)[C@@H]2O)CC2O[C@](O)(CC(O)C(O)CCC(O)CC(O)CC(O)CC(=O)O[C@H]1C)CC(O)C2C(=O)O` (some centres unmarked) [nystatin], the “Fold reduction of MIC” value ([2]; subinhibitory concentrations of β-AE crystalline) is given as 2–16 fold and the “Fold reduction of MIC” value ([2]; subinhibitory concentrations of β-AE sodium) is given as 2–4 fold.
In the case of `CCC(C)n1ncn(-c2ccc(N3CCN(c4ccc(OCC5COC(Cn6cncn6)(c6ccc(Cl)cc6Cl)O5)cc4)CC3)cc2)c1=O` (centres unmarked) [Itraconazole], the MFC (C. glabrata ATCC 90030 [3]) is reported as 4100 µg/mL (≈ 5.8 mM), the MIC90 (C. glabrata ATCC 90030 [3]) is reported as 4100 µg/mL (≈ 5.8 mM) and the “Multiplicity factor (MF) with C9” value (C. glabrata 2853 [4]) is reported as 1. The “MIC90 of antimycotic combined with C9” value (C. glabrata 2853 [4]) was 4096, the “Multiplicity factor (MF) with C11” value (C. glabrata 2853 [4]) was 1 and the “MIC90 of antimycotic combined with C11” value (C. glabrata 2853 [4]) was 4096. For the same compound, the “Multiplicity factor (MF) with C13” value (C. glabrata 2853 [4]) was 1, the “MIC90 of antimycotic combined with C13” value (C. glabrata 2853 [4]) was 4096 and the “Multiplicity factor (MF) with C15” value (C. glabrata 2853 [4]) was 1. The “MIC90 of antimycotic combined with C15” value (C. glabrata 2853 [4]) was 4096, the FICI (C. glabrata 2586 [5]) was 1.004 and the “MF with AABs” value [6] was 1. It also gave an MFC [7] of 4100 µg/mL (≈ 5.8 mM), an MIC90 [7] of 4100 µg/mL (≈ 5.8 mM) and an FICI (C. glabrata 2853 [8]) of 1.004. The FICI (C. glabrata ATCC 90030 [9]) was 1.004, the “Multiplicity factor (MF) with C9” value (C. glabrata 2586 [10]) was 1 and the “MIC90 of antimycotic combined with C9” value (C. glabrata 2586 [10]) was 4096. For the same compound, the “Multiplicity factor (MF) with C11” value (C. glabrata 2586 [10]) was 1, the “MIC90 of antimycotic combined with C11” value (C. glabrata 2586 [10]) was 4096 and the “Multiplicity factor (MF) with C13” value (C. glabrata 2586 [10]; C13 3 µM) was 1. For the same compound, the “MIC90 of antimycotic combined with C13” value (C. glabrata 2586 [10]) was 4096, the “Multiplicity factor (MF) with C15” value (C. glabrata 2586 [10]) was 1 and the “MIC90 of antimycotic combined with C15” value (C. glabrata 2586 [10]) was 4096. For the same compound, the FICI [11] was no more than 0.5, the MFC [12] was 4100 µg/mL (≈ 5.8 mM) and the MIC90 [12] was 4100 µg/mL (≈ 5.8 mM). For the same compound, the “Multiplicity factor (MF) with C9” value (C. glabrata ATCC 90030 [13]) was 1, the “MIC90 of antimycotic combined with C9” value (C. glabrata ATCC 90030 [13]) was 4096 and the “Multiplicity factor (MF) with C11” value (C. glabrata ATCC 90030 [13]) was 1. The “MIC90 of antimycotic combined with C11” value (C. glabrata ATCC 90030 [13]) was 4096, the “Multiplicity factor (MF) with C13” value (C. glabrata ATCC 90030 [13]) was 1 and the “MIC90 of antimycotic combined with C13” value (C. glabrata ATCC 90030 [13]) was 4096. The “Multiplicity factor (MF) with C15” value (C. glabrata ATCC 90030 [13]) was 1 and the “MIC90 of antimycotic combined with C15” value (C. glabrata ATCC 90030 [13]) was 4096.
In the case of `CC(=O)N1CCN(c2ccc(OCC3COC(Cn4ccnc4)(c4ccc(Cl)cc4Cl)O3)cc2)CC1` (centres unmarked) [Ketoconazole], the MFC (C. glabrata ATCC 90030 [3]) is reported as 1020 µg/mL (≈ 1.93 mM), the MIC90 (C. glabrata ATCC 90030 [3]) is reported as 256 µg/mL (≈ 0.482 mM) and the “Multiplicity factor (MF) with C9” value (C. glabrata 2853 [4]) is reported as 1. For the same compound, the “MIC90 of antimycotic combined with C9” value (C. glabrata 2853 [4]) was 4, the “Multiplicity factor (MF) with C11” value (C. glabrata 2853 [4]) was 1 and the “MIC90 of antimycotic combined with C11” value (C. glabrata 2853 [4]) was 4. For the same compound, the “Multiplicity factor (MF) with C13” value (C. glabrata 2853 [4]) was 2 (2), the “Multiplicity factor (MF) with C13” value (C. glabrata 2853 [4]; listed as ketoconazole) was 2 and the “MIC90 of antimycotic combined with C13” value (C. glabrata 2853 [4]) was 2 (2). The “Multiplicity factor (MF) with C15” value (C. glabrata 2853 [4]) was 4, the “MIC90 of antimycotic combined with C15” value (C. glabrata 2853 [4]) was 1 and the FICI (C. glabrata 2586 [5]) was 1.25. The MFC [7] was 1020 µg/mL (≈ 1.93 mM), the MIC90 [7] was 4 µg/mL (≈ 0.00753 mM) and the “Type of interaction with β-AE (by FICI)” value (C. glabrata 2853 [8]) was “additive”. For the same compound, the FICI (C. glabrata 2853 [8]) was 0.75, the FICI (C. glabrata ATCC 90030 [9]) was 2 and the “Multiplicity factor (MF) with C9” value (C. glabrata 2586 [10]) was 8. The “MIC90 of antimycotic combined with C9” value (C. glabrata 2586 [10]) was 64, the “Multiplicity factor (MF) with C11” value (C. glabrata 2586 [10]) was 16 and the “MIC90 of antimycotic combined with C11” value (C. glabrata 2586 [10]) was 32. The “MIC90 of antimycotic combined with C13” value (C. glabrata 2586 [10]) was 16, the “Multiplicity factor (MF) with C15” value (C. glabrata 2586 [10]) was 64 and the “MIC90 of antimycotic combined with C15” value (C. glabrata 2586 [10]) was 8. For the same compound, the FICI [11] was no more than 0.5, the MFC [12] was 1020 µg/mL (≈ 1.93 mM) and the MIC90 [12] was 512 µg/mL (≈ 0.963 mM). For the same compound, the “Multiplicity factor (MF) with C9” value (C. glabrata ATCC 90030 [13]) was 16 (16), the “Multiplicity factor (MF) with C9” value (C. glabrata ATCC 90030 [13]; listed as ketoconazole) was 16 and the “MIC90 of antimycotic combined with C9” value (C. glabrata ATCC 90030 [13]) was 16 (16). The “Multiplicity factor (MF) with C11” value (C. glabrata ATCC 90030 [13]) was 16 (16), the “Multiplicity factor (MF) with C11” value (C. glabrata ATCC 90030 [13]; listed as ketoconazole) was 16 and the “MIC90 of antimycotic combined with C11” value (C. glabrata ATCC 90030 [13]) was 16 (16). For the same compound, the “Multiplicity factor (MF) with C13” value (C. glabrata ATCC 90030 [13]) was 16 (16), the “Multiplicity factor (MF) with C13” value (C. glabrata ATCC 90030 [13]; listed as ketoconazole) was 16 and the “MIC90 of antimycotic combined with C13” value (C. glabrata ATCC 90030 [13]) was 16 (16). For the same compound, the “Multiplicity factor (MF) with C15” value (C. glabrata ATCC 90030 [13]) was 64 and the “MIC90 of antimycotic combined with C15” value (C. glabrata ATCC 90030 [13]) was 4.
In the case of “C12–C18 alkyl amido propyl dimethylamine betaine [AAPDB]”, the Antimicrobial activity (C. albicans) is listed as “active”.
